Measured values reported in patent US9493420B2, “Quinoline derivatives and uses thereof” (Portland State University, priority 2005, dated 2016).

How the values were obtained:
[1] = tested on: mitogen-induced murine spleen lymphocytes; type: cell-based; settings: mouse spleen lymphocytes; for Cytotoxicity: LC50, 72 hours + 24 hours resazurin; for cytotoxicity values: Table 14
Procedure: Mouse spleen lymphocytes were isolated from C57B1/6J mice by teasing tissues on a metallic sieve screen. […] Two hundred (200) μl isolated cells were then seeded in separate wells of a 96-well flat-bottom tissue culture plate at a density of 2×10^5 cells per well. […] After 72 hours incubation in a humidified atmosphere at 37° C. and 5% CO2, a solution of resazurin PBS was added to a final concentration 10 μM, and the plates were returned to the incubator for another 24 hours. Resazurin is a substrate which changes color in response to metabolic activity (such as, living cells). […] LC50 values were determined from plots of florescence versus drug concentration using non-linear regression by Prism software.

[2] = tested on: Dd2 (CQ^R) P. falciparum strain; assay: In vitro fluorescence (Sybr Green I) growth inhibition assay, Dd2 strain; type: cell-based; settings: Plasmodium falciparum, DD2; Table 13; growth inhibition; read-out: IC50 (nM) Dd2 (CQ^R)
Description: (§1) One exemplary method for measuring inhibitory effects of RCQ compound in vitro has been reported by Smilkstein et al. (Antimicrob. Agents Chemother., 48(5):1803-1806, 2004). This method employs fluorescent detection of the level of parasitemia in cultured red blood cells and can be automated for high-throughput screening of antimalarial RCQs. This exemplary method allows the inhibitory agent (such as a RCQ) to be in contact with the parasite for an entire developmental cycle without purine starvation, which is in contrast to the traditional ^3H-hypoxanthine method (Desjardins et al., Antimicrob. Agents Chemother., 16(6):710-718, 1979). Briefly, to perform the Smilkstein et al. method, an initial parasitemia of approximately 0.2% is attained by adding uninfected red blood cells (RBCs) to a stock culture of Plasmodium sp.-infected RBCs. […] After a period of incubation (such as about 72 hours), a sufficient amount (e.g., 100 μL) of a fluorescent DNA binding dye-detergent mixture (e.g., Sybr Green I dye-detergent mixture) to lyse cells and bind to DNA is added to the reactions. Because uninfected RBCs have no DNA, only parasite DNA (in infected RBCs) is available for binding to the fluorescent dye (e.g., Sybr Green I). Samples are then incubated in the dark for a period of time (e.g., one hour), followed by measurement of levels of fluorescence. For Sybr Green I, excitation and emission wavelength are 485 and 530 nm, respectively. Fluorescence readings, which represent the amount of parasite DNA in the sample, can be plotted against the Log [drug] and fit to a curve by nonlinear regression to obtain the IC50 value for the tested compound.
(§2) An in vitro fluorescence assay for determining IC50 of antimalarial drugs was performed as previously described by Smilkstein et al. (Antimicrob. Agents Chemother., 48(5):1803-1806, 2004). This relatively low-cost procedure can be automated for high-throughput screening of the antimalarial activities of RCQs described herein. Advantageous, this method also allows the tested agent (e.g, a RCQ) to be in contact with the parasite for an entire developmental cycle without purine starvation (which occurs with the commonly used ^3H-hypoxanthine method; see, e.g., Desjardins et al., Antimicrob. Agents Chemother., 16, (6):[…], 1979).
(§3) Briefly, an initial parasitemia of approximately 0.2% was attained by addition of uninfected red blood cells to a stock culture of cells infected with Dd2 (CQ^R) or D6 (CQ^S) P. falciparum strains. A 10 mM RCQ_02 solution (in DMSO) was prepared. RCQ_02 (at a final concentration from 10^−11 to 10^−4 M) and infected red blood cells (at a final concentration of 2% (v/v)) were mixed in 100 μL samples in individual wells of a 96-well plate. Each sample was prepared in triplicate. A triplicate set of reactions containing CQ (instead of RCQ_02) was included as a control. After a 72 hour incubation period, Sybr Green I dye-detergent mixture (100 μL) was added to each reaction. The samples were further incubated for an hour in the dark, and then placed in a 96-well fluorescence plate reader (Gemini-EM, […]) and analyzed with excitation and emission wavelength bands at 485 and 530 nm, respectively. Fluorescence readings were plotted against the Log [drug], and curve fitting performed by nonlinear regression to find the IC50 value.

[3] = tested on: D6 (CQ^S) P. falciparum strain; assay: In vitro fluorescence (Sybr Green I) growth inhibition assay, D6 strain; type: cell-based; settings: Plasmodium falciparum, D6; Table 13; growth inhibition; read-out: IC50 (nM) D6 (CQ^S)
Description: as §1, §2, §3

[4] = tested on: W2 (CQ^R) P. falciparum strain; assay: In vitro fluorescence (Sybr Green I) growth inhibition assay, W2 strain; type: cell-based; settings: Plasmodium falciparum, W2; Table 13; growth inhibition; read-out: IC50 (nM) W2 (CQ^R)
[5] = molecular target: T1, recombinant human norepinephrine (hNET) transporter (Homo sapiens, UniProt P23975); assay: Inhibition of [3H]neurotransmitter uptake, hNET; type: cell-based
T1 construct: expressed in transfected cells; host or cells: HEK cells expressing hNET
T1 sequence (P23975 whole entry): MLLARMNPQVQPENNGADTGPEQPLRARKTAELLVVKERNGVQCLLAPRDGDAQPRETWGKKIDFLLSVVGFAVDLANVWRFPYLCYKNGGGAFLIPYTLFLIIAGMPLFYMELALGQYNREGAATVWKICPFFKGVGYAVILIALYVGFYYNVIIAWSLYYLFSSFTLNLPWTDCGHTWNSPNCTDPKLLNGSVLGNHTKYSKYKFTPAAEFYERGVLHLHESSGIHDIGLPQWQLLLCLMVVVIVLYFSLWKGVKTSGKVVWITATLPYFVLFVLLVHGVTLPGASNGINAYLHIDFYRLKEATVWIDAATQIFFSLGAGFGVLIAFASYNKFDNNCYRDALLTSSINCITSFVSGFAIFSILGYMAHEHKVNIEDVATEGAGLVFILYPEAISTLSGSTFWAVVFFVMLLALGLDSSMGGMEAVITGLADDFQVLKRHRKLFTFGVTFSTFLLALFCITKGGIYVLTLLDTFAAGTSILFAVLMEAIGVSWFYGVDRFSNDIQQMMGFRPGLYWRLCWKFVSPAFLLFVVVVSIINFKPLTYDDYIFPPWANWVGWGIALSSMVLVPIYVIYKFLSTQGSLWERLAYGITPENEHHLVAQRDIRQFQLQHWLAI
Procedure: (§4) Selected RCQs were tested for inhibition of [^3H]neurotransmitter uptake by the recombinant human serotonin (hSERT), dopamine (HEK-hDAT), and norepinephrine (hNET) transporters by a modification of the method of Eshleman et al. (J. Pharmacol. Exp. Ther., 289(2):877-885, 1999). HEK-hDAT, hSERT, and -hNET expressing cells were grown on tissue culture dishes. After removing the medium and washing the plates with Ca^2+-, Mg^2+-free phosphate buffered saline (PBS), fresh medium was added and the plates were placed in a 25° C. water bath for 5 minutes. Cells were gently lifted from the plates and cell clusters separated by trituration. 50 μL aliquots of the suspended cells were added to assay tubes containing drugs and Krebs-HEPES assay buffer in a final volume of 0.5 mL.
(§5) Competition experiments were conducted in triplicate. After a 10 minute preincubation period at 25° C., [^3H]neurotransmitter (20 nM final concentration; [^3H]DA, [^3H]5-HT, or [^3H]NE) were added, and the mixtures incubated for 10 minutes. Reactions were terminated by filtration through Wallac filtermat A filters (presoaked in 0.05% polyethylenimine), using a Tomtec cell harvester. Scintillation fluid was added to each filtered spot, and radioactivity remaining on the filters determined using a Wallac 1205 Betaplate scintillation counter.
(§6) Specific uptake was defined as the difference in uptake observed in the absence and presence of 5 μM mazindol (hDAT and hNET) or 5 μM imipramine (hSERT). Inhibition of uptake was determined by non-linear regression using Prism software.

[6] = molecular target: T2, recombinant human dopamine (HEK-hDAT) transporter (Homo sapiens, UniProt Q01959); assay: Inhibition of [3H]neurotransmitter uptake, hDAT; type: cell-based
T2 construct: expressed in transfected cells; host or cells: HEK cells expressing hDAT (HEK-hDAT)
T2 sequence (Q01959 whole entry): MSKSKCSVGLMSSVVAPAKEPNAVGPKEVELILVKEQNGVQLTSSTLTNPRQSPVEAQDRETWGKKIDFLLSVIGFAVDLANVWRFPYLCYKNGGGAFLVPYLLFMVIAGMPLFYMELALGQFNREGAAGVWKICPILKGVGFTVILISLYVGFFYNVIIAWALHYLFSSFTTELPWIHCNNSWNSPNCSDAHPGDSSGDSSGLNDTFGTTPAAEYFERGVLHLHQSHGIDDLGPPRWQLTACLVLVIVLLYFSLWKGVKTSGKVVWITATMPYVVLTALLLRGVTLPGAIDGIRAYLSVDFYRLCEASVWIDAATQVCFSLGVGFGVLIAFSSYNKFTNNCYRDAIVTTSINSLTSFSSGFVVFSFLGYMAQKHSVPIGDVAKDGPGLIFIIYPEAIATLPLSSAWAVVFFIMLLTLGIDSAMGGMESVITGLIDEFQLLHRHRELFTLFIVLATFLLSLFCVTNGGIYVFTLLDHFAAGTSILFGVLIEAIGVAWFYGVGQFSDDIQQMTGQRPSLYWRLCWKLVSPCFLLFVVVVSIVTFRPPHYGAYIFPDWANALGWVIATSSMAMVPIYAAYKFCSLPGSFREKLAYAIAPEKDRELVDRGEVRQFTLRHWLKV
Procedure: as §4, §5, §6

[7] = molecular target: T3, recombinant human serotonin (hSERT) transporter (Homo sapiens, UniProt P31645); assay: Inhibition of [3H]neurotransmitter uptake, hSERT; type: cell-based
T3 construct: expressed in transfected cells; host or cells: HEK cells expressing hSERT
T3 sequence (P31645 whole entry): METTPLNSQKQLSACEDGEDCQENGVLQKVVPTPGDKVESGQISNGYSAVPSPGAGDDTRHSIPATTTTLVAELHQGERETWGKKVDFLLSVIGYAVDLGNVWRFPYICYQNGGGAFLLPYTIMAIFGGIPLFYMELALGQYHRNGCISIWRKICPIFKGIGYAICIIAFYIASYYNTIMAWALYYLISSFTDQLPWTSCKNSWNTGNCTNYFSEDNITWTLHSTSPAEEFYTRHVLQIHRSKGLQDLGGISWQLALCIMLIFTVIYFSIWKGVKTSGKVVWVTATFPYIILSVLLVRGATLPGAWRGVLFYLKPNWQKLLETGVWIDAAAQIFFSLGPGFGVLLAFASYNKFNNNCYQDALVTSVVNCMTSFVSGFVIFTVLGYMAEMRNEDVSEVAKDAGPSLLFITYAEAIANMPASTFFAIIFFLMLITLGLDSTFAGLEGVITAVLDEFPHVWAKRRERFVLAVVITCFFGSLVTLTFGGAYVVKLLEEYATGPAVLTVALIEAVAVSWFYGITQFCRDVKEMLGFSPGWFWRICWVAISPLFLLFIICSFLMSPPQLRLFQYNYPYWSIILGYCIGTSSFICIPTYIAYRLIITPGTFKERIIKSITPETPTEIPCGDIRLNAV
Procedure: as §4, §5, §6

[8] = tested on: P. falciparum strain TM91C235; settings: cited from earlier work; note: key: S = sensitive; R = resistant; S/R = intermediate level of resistance
P. falciparum strain D6 = settings: cited from earlier work; note: key: S = sensitive; R = resistant; S/R = intermediate level of resistance
P. falciparum strain Dd2 = settings: cited from earlier work; note: key: S = sensitive; R = resistant; S/R = intermediate level of resistance
P. falciparum strain W2 = settings: cited from earlier work; note: key: S = sensitive; R = resistant; S/R = intermediate level of resistance
[9] = tested on: P. falciparum strain FCR3; settings: cited from earlier work; note: key: S = sensitive; R = resistant; S/R = intermediate level of resistance

For `Clc1ccc2c(NCCN3CCCN(C4c5ccccc5-c5ccccc54)CC3)ccnc2c1` [RCQ_72], the “Cytotoxicity” value [1] was 2500 nM, the IC50 [2] was 9.6 nM and the IC50 [3] was 9.2 nM.
For `Clc1ccc(C(c2ccccc2)N2CCCN(CCCNc3ccnc4cc(Cl)ccc34)CC2)cc1` (stereo not shown) [RCQ_74], the “Cytotoxicity” value [1] was 900 nM, the IC50 [2] was 9.8 nM and the IC50 [3] was 15 nM.
In the case of `Clc1ccc(C(c2ccccc2)N2CCN(CCNc3ccnc4cc(Cl)ccc34)CC2)cc1` (stereo not shown) [RCQ_32], the IC50 [4] is reported as 3.4 nM, the “Cytotoxicity” value [1] is reported as 1400 nM and the IC50 [2] is reported as 3.4 nM. For the same compound, the IC50 [3] was 2.6 nM.
With `Clc1ccc2c(NCCCNCCCN(Cc3ccccc3)Cc3ccccc3)ccnc2c1` [RCQ_22] the “Cytotoxicity” value [1] was 700 nM, the cytotoxicity values [1] was 700 nM and the IC50 [2] was 79 nM. The IC50 [3] was 45 nM.
In the case of `Clc1ccc2c(NCCCN3CCCN(C4c5ccccc5-c5ccccc54)CC3)ccnc2c1` [RCQ_76], the IC50 [5] is reported as 550 nM, the “Cytotoxicity” value [1] is reported as 2500 nM and the IC50 [2] is reported as 15.3 nM. It also gave an IC50 [6] of 1080 nM, an IC50 [7] of 965 nM and an IC50 [3] of 21.1 nM.
For `Clc1ccc2c(NCCCN3CCC(=C4c5ccccc5C=Cc5ccccc54)CC3)ccnc2c1` [RCQ_42], the “Cytotoxicity” value [1] was 1100 nM, the IC50 [2] was 1.8 nM and the IC50 [3] was 2.1 nM.
For `C=C[C@H]1C[N@@]2CC[C@H]1C[C@H]2[C@H](O)c1ccnc2ccc(OC)cc12` [Quinine], the “Drug susceptibility, strain TM91C235” value [8] is given as “R”, the “Drug susceptibility, strain D6” value (P. falciparum strain D6) is given as “S” and the “Drug susceptibility, strain Dd2” value (P. falciparum strain Dd2) is given as “R”. For the same compound, the “Drug susceptibility, strain W2” value (P. falciparum strain W2) was “R” and the “Drug susceptibility, strain FCR3” value [9] was “S”.
Compound `Clc1ccc2c(N3CCN(CCN(Cc4ccccc4)Cc4ccccc4)CC3)ccnc2c1` [RCQ_351] has an IC50 [2] of 164 nM and an IC50 [3] of 141 nM.
`Clc1ccc2c(NCCCNCCN(c3ccccc3)c3ccccc3)ccnc2c1` [RCQ_05(desMe)] showed an IC50 [2] of 27 nM and an IC50 [3] of 36 nM.
With `Clc1ccc2c(NCCN3CCCN(C(c4ccccc4)c4ccccc4)CC3)ccnc2c1` [RCQ_36] the “Cytotoxicity” value [1] was 5300 nM, the cytotoxicity values [1] was 5300 nM and the IC50 [2] was 98 nM. For the same compound, the IC50 [3] was 11.7 nM.
With `Clc1ccc2c(NCCCN3CCN(C(c4ccccc4)c4ccccc4)CC3)ccnc2c1` [RCQ_34] the IC50 [4] was 2.5 nM, the “Cytotoxicity” value [1] was 1100 nM and the IC50 [2] was 3.7 nM. For the same compound, the IC50 [3] was 2.4 nM.
`CCN1CCN(c2ccnc3cc(Cl)ccc23)CC1` [Q_38a] gave an IC50 [2] of 400 nM and an IC50 [3] of 280 nM.
In the case of `COc1ncnc(NS(=O)(=O)c2ccc(N)cc2)c1OC` [Sulfadoxine], the “Drug susceptibility, strain TM91C235” value [8] is given as “R”, the “Drug susceptibility, strain D6” value (P. falciparum strain D6) is given as “S” and the “Drug susceptibility, strain Dd2” value (P. falciparum strain Dd2) is given as “S”. For the same compound, the “Drug susceptibility, strain W2” value (P. falciparum strain W2) was “R” and the “Drug susceptibility, strain FCR3” value [9] was “S”.
In the case of `Clc1ccc2c(NCCCN3CCCN(C(c4ccccc4)c4ccccc4)CC3)ccnc2c1` [RCQ_73], the IC50 [5] is reported as 660 nM, the “Cytotoxicity” value [1] is reported as 700 nM and the cytotoxicity values [1] is reported as 700 nM. It also gave an IC50 [2] of 4.1 nM, an IC50 [6] of 1400 nM and an IC50 [7] of 1160 nM. The IC50 [3] was 4.8 nM.
For `Fc1ccc(C(c2ccc(F)cc2)N2CCN(CCCNc3ccnc4cc(Cl)ccc34)CC2)cc1` [RCQ_37F2], the “Cytotoxicity” value [1] was 4100 nM, the IC50 [2] was 19 nM and the IC50 [3] was 15 nM.
In the case of `CN(CCCN1c2ccccc2CCc2ccccc21)CCNc1ccnc2cc(Cl)ccc12` [RCQ_33], the IC50 [4] is reported as 9.3 nM, the “Cytotoxicity” value [1] is reported as 1400 nM and the IC50 [2] is reported as 9.3 nM. The IC50 [3] was 8.1 nM.
In the case of `OC(c1cc(C(F)(F)F)nc2c(C(F)(F)F)cccc12)C1CCCCN1` (stereo not shown) [Mefloquine], the “Drug susceptibility, strain TM91C235” value [8] is given as “R”, the “Drug susceptibility, strain D6” value (P. falciparum strain D6) is given as “S/R” and the “Drug susceptibility, strain Dd2” value (P. falciparum strain Dd2) is given as “R”. For the same compound, the “Drug susceptibility, strain W2” value (P. falciparum strain W2) was “S” and the “Drug susceptibility, strain FCR3” value [9] was “S”.
With `Clc1ccc(C(c2ccccc2)N2CCN(CCCNc3ccnc4cc(Cl)ccc34)CC2)cc1` (stereo not shown) [RCQ_35] the IC50 [4] was 4 nM, the “Cytotoxicity” value [1] was 800 nM and the IC50 [2] was 6 nM. It also gave an IC50 [3] of 4 nM.
In the case of `CC1(C)N=C(N)N=C(N)N1c1ccc(Cl)cc1` [Cycloguanil], the “Drug susceptibility, strain D6” value (P. falciparum strain D6) is listed as “S”, the “Drug susceptibility, strain Dd2” value (P. falciparum strain Dd2) is listed as “S” and the “Drug susceptibility, strain W2” value (P. falciparum strain W2) is listed as “R”. For the same compound, the “Drug susceptibility, strain FCR3” value [9] was “S”.
Work on `Clc1ccc2c(NCCCNCCCCN(Cc3ccccc3)Cc3ccccc3)ccnc2c1` [RCQ_26] yielded an IC50 [2] of 10.6 nM and an IC50 [3] of 7.6 nM.
